Data published in patent publication US20240173307A1, “MODULATORS OF THE INTEGRATED STRESS PATHWAY” (Calico Life Sciences LLC, priority 2017, published 2024).

Test system: HEK293T cells carrying the ATF4 luciferase reporter
Assay: ATF4-Luc assay (in vitro model of vanishing white matter disease)
Format: cell-based
Settings: Homo sapiens, HEK-293T, 1 μg/mL tunicamycin, 7 hours
Procedure: In order to test exemplary compounds of the invention in a cellular context, a stable VWMD cell line was first constructed. The ATF4 reporter was prepared by fusing the human full-length ATF4 5′-UTR (NCBI Accession No. BCO22088.2) in front of the firefly luciferase (FLuc) coding sequence lacking the initiator methionine as described in Sidrauski et al (eLife 2013). The construct was used to produce recombinant retroviruses using standard methods and the resulting viral supernatant was used to transduce HEK293T cells, which were then subsequently selected with puromycin to generate a stable cell line.
HEK293T cells carrying the ATF4 luciferase reporter were plated on polylysine coated 384-well plates (Greiner Bio-one) at 30,000 cells per well. Cells were treated the next day with 1 μg/mL tunicamycin and 200 nM of a compound of Formula (I) for 7 hours. Luminescence was measured using One Glo (Promega) as specified by the manufacturer. Cells were maintained in DMEM with L-glutamine supplemented with 10% heat-inactivated FBS (Gibco) and Antibiotic-Antimycotic solution (Gibco).
Table 2 below summarizes the EC50 data obtained using the ATF4-Luc assay for exemplary compounds of the invention.

Compound	EC50
O=C(COc1ccc(Cl)c(F)c1)NC12CC(C(=O)Nc3ccc(Cl)cc3)(C1)C2 [Compound 283, 3-[2-(4-chloro-3-fluorophenoxy)acetamido]-N-(4-chlorophenyl)bicyclo[1.1.1]pentane-1-carboxamide]	< 250 nM
O=C(COc1ccc(Cl)c(F)c1)NC12CC(C(=O)Nc3cnc(C(F)F)cn3)(C1)C2 [Compound 284, 3-[2-(4-chloro-3-fluorophenoxy)acetamido]-N-[5-(difluoromethyl)pyrazin-2-yl]bicyclo[1.1.1]pentane-1-carboxamide]	< 250 nM
O=C(COc1ccc(Cl)c(F)c1)NC12CC(C(=O)Nc3ccccc3)(C1)C2 [Compound 285, 3-[2-(4-chloro-3-fluorophenoxy)acetamido]-N-phenylbicyclo[1.1.1]pentane-1-carboxamide]	< 250 nM
O=C(COc1ccc(Cl)c(F)c1)NC12CCC(C(=O)Nc3ccc(Cl)cc3)(C1)C2 [Compound 286, 4-[2-(4-chloro-3-fluorophenoxy)acetamido]-N-(4-chlorophenyl)bicyclo[2.1.1]hexane-1-carboxamide]	> 2000 nM
O=C(COc1ccc(Cl)c(F)c1)NC12CC(C(=O)Nc3ccc(OC(F)(F)F)cn3)(C1)C2 [Compound 287, 3-[2-(4-chloro-3-fluorophenoxy)acetamido]-N-[5-(trifluoromethoxy)pyridin-2-yl]bicyclo[1.1.1]pentane-1-carboxamide]	< 250 nM
O=C(COc1ccc(Cl)c(F)c1)NC12CCC(C(=O)Nc3ccc(OC(F)(F)F)cn3)(C1)C2 [Compound 288, 4-[2-(4-chloro-3-fluorophenoxy)acetamido]-N-[5-(trifluoromethoxy)pyridin-2-yl]bicyclo[2.1.1]hexane-1-carboxamide]	< 250 nM
O=C(COc1ccc(Cl)c(Cl)c1)NC12CC(C(=O)Nc3ccccn3)(C1)C2 [Compound 289, 3-[2-(3,4-dichlorophenoxy)acetamido]-N-(pyridin-2-yl)bicyclo[1.1.1]pentane-1-carboxamide]	< 250 nM
O=C(COc1ccc(Cl)c(F)c1)NC12CC(C(=O)Nc3ccccn3)(C1)C2 [Compound 290, 3-[2-(4-chloro-3-fluorophenoxy)acetamido]-N-(pyridin-2-yl)bicyclo[1.1.1]pentane-1-carboxamide]	< 250 nM
O=C(COc1ccc(Cl)c(Cl)c1)NC12CC(C(=O)Nc3ccc(OC(F)(F)F)cn3)(C1)C2 [Compound 291, 3-[2-(3,4-dichlorophenoxy)acetamido]-N-[5-(trifluoromethoxy)pyridin-2-yl]bicyclo[1.1.1]pentane-1-carboxamide]	< 250 nM
O=C(COc1ccc(Cl)c(Cl)c1)NC12CCC(C(=O)Nc3ccc(OC(F)(F)F)cn3)(C1)C2 [Compound 292, 4-[2-(3,4-dichlorophenoxy)acetamido]-N-[5-(trifluoromethoxy)pyridin-2-yl]bicyclo[2.1.1]hexane-1-carboxamide]	< 250 nM
O=C(COc1ccc2c(c1)OC(F)(F)O2)NC12CCC(C(=O)Nc3ccc(OC(F)(F)F)cn3)(C1)C2 [Compound 293, 4-{2-[(2,2-difluoro-2H-1,3-benzodioxol-5-yl)oxy]acetamido}-N-[5-(trifluoromethoxy)pyridin-2-yl]bicyclo[2.1.1]hexane-1-carboxamide]	250 to 500 nM
O=C(COc1ccc2c(c1)OC(F)(F)O2)NC12CC(C(=O)Nc3ccc(OC(F)(F)F)cn3)(C1)C2 [Compound 294, 3-{2-[(2,2-difluoro-2H-1,3-benzodioxol-5-yl)oxy]acetamido}-N-[5-(trifluoromethoxy)pyridin-2-yl]bicyclo[1.1.1]pentane-1-carboxamide]	< 250 nM
O=C(COc1ccc(Cl)c(Cl)c1)NC12CC(C(=O)Nc3cccnc3)(C1)C2 [Compound 295, 3-[2-(3,4-dichlorophenoxy)acetamido]-N-(pyridin-3-yl)bicyclo[1.1.1]pentane-1-carboxamide]	< 250 nM
O=C(COc1ccc(Cl)c(Cl)c1)NC12CC(C(=O)Nc3ccncc3)(C1)C2 [Compound 296, 3-[2-(3,4-dichlorophenoxy)acetamido]-N-(pyridin-4-yl)bicyclo[1.1.1]pentane-1-carboxamide]	< 250 nM
O=C(COc1ccc(C(F)(F)F)nc1)NC12CC(C(=O)Nc3ccc(OC(F)(F)F)cn3)(C1)C2 [Compound 297, N-[5-(trifluoromethoxy)pyridin-2-yl]-3-(2-{[6-(trifluoromethyl)pyridin-3-yl]oxy}acetamido)bicyclo[1.1.1]pentane-1-carboxamide]	< 250 nM
O=C(COc1ccc(Cl)c(F)c1)NC12CC(C(=O)Nc3ccc(C(F)F)cn3)(C1)C2 [Compound 298, 3-[2-(4-chloro-3-fluorophenoxy)acetamido]-N-[5-(difluoromethyl)pyridin-2-yl]bicyclo[1.1.1]pentane-1-carboxamide]	< 250 nM

Compound	EC50
Cc1ccc(NC(=O)C23CC(NC(=O)COc4ccc(Cl)c(F)c4)(C2)C3)nc1 [Compound 299, 3-[2-(4-chloro-3-fluorophenoxy)acetamido]-N-(5-methylpyridin-2-yl)bicyclo[1.1.1]pentane-1-carboxamide]	< 250 nM
O=C(COc1ccc(Cl)c(F)c1)NC12CC(C(=O)Nc3cccnc3)(C1)C2 [Compound 300, 3-[2-(4-chloro-3-fluorophenoxy)acetamido]-N-(pyridin-3-yl)bicyclo[1.1.1]pentane-1-carboxamide]	< 250 nM
O=C(COc1ccc(Cl)c(F)c1)NC12CC(C(=O)Nc3ccncc3)(C1)C2 [Compound 301, 3-[2-(4-chloro-3-fluorophenoxy)acetamido]-N-(pyridin-4-yl)bicyclo[1.1.1]pentane-1-carboxamide]	< 250 nM
COc1cnc(NC(=O)C23CC(NC(=O)COc4ccc(Cl)c(F)c4)(C2)C3)nc1 [Compound 302, 3-[2-(4-chloro-3-fluorophenoxy)acetamido]-N-(5-methoxypyrimidin-2-yl)bicyclo[1.1.1]pentane-1-carboxamide]	250 to 500 nM
COc1ccc(NC(=O)C23CC(NC(=O)COc4ccc(Cl)c(F)c4)(C2)C3)nc1 [Compound 303, 3-[2-(4-chloro-3-fluorophenoxy)acetamido]-N-(5-methoxypyridin-2-yl)bicyclo[1.1.1]pentane-1-carboxamide]	250 to 500 nM
Cc1cnc(NC(=O)C23CC(NC(=O)COc4ccc(Cl)c(F)c4)(C2)C3)cn1 [Compound 304, 3-[2-(4-chloro-3-fluorophenoxy)acetamido]-N-(5-methylpyrazin-2-yl)bicyclo[1.1.1]pentane-1-carboxamide]	< 250 nM
N#Cc1ccc(NC(=O)C23CC(NC(=O)COc4ccc(Cl)c(F)c4)(C2)C3)nc1 [Compound 305, 3-[2-(4-chloro-3-fluorophenoxy)acetamido]-N-(5-cyanopyridin-2-yl)bicyclo[1.1.1]pentane-1-carboxamide]	< 250 nM
O=C(COc1ccc(Cl)c(F)c1)NC12CC(C(=O)Nc3ccc(C4CC4)cn3)(C1)C2 [Compound 306, 3-[2-(4-chloro-3-fluorophenoxy)acetamido]-N-(5-cyclopropylpyridin-2-yl)bicyclo[1.1.1]pentane-1-carboxamide]	< 250 nM
CCOc1cnc(NC(=O)C23CC(NC(=O)COc4ccc(Cl)c(F)c4)(C2)C3)cn1 [Compound 307, 3-[2-(4-chloro-3-fluorophenoxy)acetamido]-N-(5-ethoxypyrazin-2-yl)bicyclo[1.1.1]pentane-1-carboxamide]	250 to 500 nM
O=C(COc1ccc(F)c(F)c1)NC12CC(C(=O)Nc3ccc(OC(F)(F)F)cn3)(C1)C2 [Compound 308, 3-[2-(3,4-difluorophenoxy)acetamido]-N-[5-(trifluoromethoxy)pyridin-2-yl]bicyclo[1.1.1]pentane-1-carboxamide]	< 250 nM
O=C(COc1ccc(Cl)c(F)c1)NC12CC(C(=O)Nc3ccc(OC(F)F)cn3)(C1)C2 [Compound 309, 3-[2-(4-chloro-3-fluorophenoxy)acetamido]-N-[5-(difluoromethoxy)pyridin-2-yl]bicyclo[1.1.1]pentane-1-carboxamide]	< 250 nM
O=C(COc1ccc(Cl)c(F)c1)NC12CC(C(=O)Nc3ccc(OCC(F)(F)F)nc3)(C1)C2 [Compound 310, 3-[2-(4-chloro-3-fluorophenoxy)acetamido]-N-[6-(2,2,2-trifluoroethoxy)pyridin-3-yl]bicyclo[1.1.1]pentane-1-carboxamide]	< 250 nM
CCOC(=O)c1ccc(NC(=O)C23CC(NC(=O)COc4ccc(Cl)c(F)c4)(C2)C3)nc1 [Compound 311, ethyl 6-({3-[2-(4-chloro-3-fluorophenoxy)acetamido]bicyclo[1.1.1]pentane-1-carbonyl}amino)pyridine-3-carboxylate]	250 to 500 nM
CCOC(=O)c1csc(NC(=O)C23CC(NC(=O)COc4ccc(Cl)c(F)c4)(C2)C3)n1 [Compound 312, ethyl 2-({3-[2-(4-chloro-3-fluorophenoxy)acetamido]bicyclo[1.1.1]pentane-1-carbonyl}amino)-1,3-thiazole-4-carboxylate]	250 to 500 nM
O=C(COc1ccc(Cl)c(F)c1)NC12CC(C(=O)Nc3cc(CO)ccn3)(C1)C2 [Compound 313, 3-[2-(4-chloro-3-fluorophenoxy)acetamido]-N-[4-(hydroxymethyl)pyridin-2-yl]bicyclo[1.1.1]pentane-1-carboxamide]	1000 to 2000 nM
O=C(COc1ccc(Cl)c(F)c1)NC12CC(C(=O)Nc3ccccc3F)(C1)C2 [Compound 314, 3-[2-(4-chloro-3-fluorophenoxy)acetamido]-N-(2-fluorophenyl)bicyclo[1.1.1]pentane-1-carboxamide]	500 to 1000 nM
